From PubChem BioAssay AID248 (DTP/NCI, 2004)
Where “and” joins values, the source holds several entries; their conditions need not be identical. Equal entries are not always repeated. Inconclusive results and toxic doses are left out.

Tested on: L1210 leukemia ip in BDF1 mice, survival T/C
Test: NCI In Vivo Anticancer Drug Screen. Data for tumor model L1210 Leukemia (intraperitoneal) in B6D2F1 (BDF1) mice
Settings: endpoint: mean survival time, higher = longer survival
Procedure, shortened: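 Transplanted-tumor mice were given test agent; controls received vehicle only. Survival readings from the two groups were divided (treated over control).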

[1] = dose: 100.0 mg/kg/injection, schedule: Q01DX001 (ip), vehicle: saline
[2] = dose: 200.0 mg/kg/injection, schedule: Q01DX001 (ip), vehicle: saline
[3] = dose: 400.0 mg/kg/injection, schedule: Q01DX001 (ip), vehicle: saline
[4] = dose: 100.0 mg/kg/injection, schedule: Q04DX002 (ip), vehicle: Klucel (hydroxypropylcellulose) (HPC)
[5] = dose: 200.0 mg/kg/injection, schedule: Q04DX002 (ip), vehicle: Klucel (hydroxypropylcellulose) (HPC)
[6] = dose: 400.0 mg/kg/injection, schedule: Q04DX002 (ip), vehicle: Klucel (hydroxypropylcellulose) (HPC)
[7] = dose: 100.0 mg/kg/injection, schedule: Q01DX009 (ip), vehicle: Klucel (hydroxypropylcellulose) (HPC)
[8] = dose: 100.0 mg/kg/injection, schedule: Q01DX001 (ip), vehicle: carboxymethylcellulose (CMC)
[9] = dose: 200.0 mg/kg/injection, schedule: Q01DX001 (ip), vehicle: carboxymethylcellulose (CMC)

O=c1[nH]c(=O)n(C2CC(O)C(CO)O2)cc1I (centres undefined)
T/C (dose: 62.5 mg/kg/injection, schedule: Q#A X Z (ip), vehicle: other): 119 % of control | T/C (dose: 125.0 mg/kg/injection, schedule: Q01DX009 (ip), vehicle: saline): 103 % of control and 113 % of control | T/C (dose: 125.0 mg/kg/injection, schedule: Q01DX010 (ip), vehicle: saline): 114 % of control and 117 % of control | T/C (dose: 125.0 mg/kg/injection, schedule: Q03DX Z (ip), vehicle: other): 119 % of control | T/C (dose: 150.0 mg/kg/injection, schedule: Q01DX009 (ip), vehicle: carboxymethylcellulose (CMC)): 167 % of control | T/C (dose: 150.0 mg/kg/injection, schedule: Q01DX009 (ip), vehicle: saline): 114 % of control | T/C (dose: 178.0 mg/kg/injection, schedule: Q01DX Z (ip), vehicle: other): 124 % of control | T/C (dose: 178.0 mg/kg/injection, schedule: Q01DX Z (ip), vehicle: saline): 112 % of control | T/C (dose: 250.0 mg/kg/injection, schedule: Q01DX001 (ip), vehicle: other): 105 % of control and 108 % of control | T/C (dose: 250.0 mg/kg/injection, schedule: Q01DX009 (ip), vehicle: saline): 111 % of control and 118 % of control | T/C (dose: 250.0 mg/kg/injection, schedule: Q01DX010 (ip), vehicle: saline): 114 % of control | T/C (dose: 250.0 mg/kg/injection, schedule: Q03DX Z (ip), vehicle: other): 104 % of control | T/C (dose: 250.0 mg/kg/injection, schedule: Q07DX Z (ip), vehicle: other): 110 % of control | T/C (dose: 267.0 mg/kg/injection, schedule: Q01DX Z (ip), vehicle: other): 116 % of control | T/C (dose: 267.0 mg/kg/injection, schedule: Q01DX Z (ip), vehicle: saline): 122 % of control | T/C (dose: 300.0 mg/kg/injection, schedule: Q01DX005 (ip), vehicle: carboxymethylcellulose (CMC)): 151 % of control | T/C (dose: 300.0 mg/kg/injection, schedule: Q01DX009 (ip), vehicle: saline): 121 % of control | T/C (dose: 304.0 mg/kg/injection, schedule: Q## X024 (ip), vehicle: carboxymethylcellulose (CMC)): 150 % of control | T/C (dose: 400.0 mg/kg/injection, schedule: Q01DX Z (ip), vehicle: other): 113 % of control | T/C (dose: 500.0 mg/kg/injection, schedule: Q01DX001 (ip), vehicle: other): 110 % of control and 113 % of control | T/C (dose: 500.0 mg/kg/injection, schedule: Q01DX009 (ip), vehicle: saline): 116 % of control and 120 % of control | T/C (dose: 500.0 mg/kg/injection, schedule: Q01DX010 (ip), vehicle: saline): 111 % of control and 122 % of control | T/C (dose: 500.0 mg/kg/injection, schedule: Q03DX Z (ip), vehicle: other): 116 % of control | T/C (dose: 500.0 mg/kg/injection, schedule: Q07DX Z (ip), vehicle: other): 113 % of control | T/C (dose: 500.0 mg/kg/injection, schedule: Q#A X Z (ip), vehicle: other): 152 % of control | T/C (dose: 600.0 mg/kg/injection, schedule: Q01DX005 (ip), vehicle: carboxymethylcellulose (CMC)): 107 % of control | T/C (dose: 600.0 mg/kg/injection, schedule: Q01DX009 (ip), vehicle: carboxymethylcellulose (CMC)): 92 % of control | T/C (dose: 600.0 mg/kg/injection, schedule: Q## X002 (ip), vehicle: carboxymethylcellulose (CMC)): 158 % of control | T/C (dose: 600.0 mg/kg/injection, schedule: Q## X003 (ip), vehicle: carboxymethylcellulose (CMC)): 170 % of control | T/C (dose: 600.0 mg/kg/injection, schedule: Q## X016 (ip), vehicle: carboxymethylcellulose (CMC)): 158 % of control | T/C (dose: 600.0 mg/kg/injection, schedule: Q## X024 (ip), vehicle: carboxymethylcellulose (CMC)): 182 % of control | T/C (dose: 900.0 mg/kg/injection, schedule: Q01DX Z (ip), vehicle: saline): 164 % of control | T/C (dose: 1000.0 mg/kg/injection, schedule: Q01DX001 (ip), vehicle: other): 110 % of control and 116 % of control | T/C (dose: 1000.0 mg/kg/injection, schedule: Q01DX009 (ip), vehicle: saline): 111 % of control and 117 % of control | T/C (dose: 1000.0 mg/kg/injection, schedule: Q01DX010 (ip), vehicle: saline): 111 % of control and 124 % of control | T/C (dose: 1000.0 mg/kg/injection, schedule: Q03DX Z (ip), vehicle: other): 117 % of control | T/C (dose: 1000.0 mg/kg/injection, schedule: Q07DX Z (ip), vehicle: other): 105 % of control | T/C (dose: 1200.0 mg/kg/injection, schedule: Q01DX001 (ip), vehicle: carboxymethylcellulose (CMC)): 161 % of control | T/C (dose: 1200.0 mg/kg/injection, schedule: Q## X002 (ip), vehicle: carboxymethylcellulose (CMC)): 187 % of control | T/C (dose: 1200.0 mg/kg/injection, schedule: Q## X003 (ip), vehicle: carboxymethylcellulose (CMC)): 211 % of control | T/C (dose: 1200.0 mg/kg/injection, schedule: Q## X008 (ip), vehicle: carboxymethylcellulose (CMC)): 157 % of control | T/C (dose: 1200.0 mg/kg/injection, schedule: Q## X016 (ip), vehicle: carboxymethylcellulose (CMC)): 167 % of control | T/C (dose: 1200.0 mg/kg/injection, schedule: Q## X024 (ip), vehicle: carboxymethylcellulose (CMC)): 160 % of control | T/C (dose: 2000.0 mg/kg/injection, schedule: Q01DX010 (ip), vehicle: saline): 119 % of control | T/C (dose: 2400.0 mg/kg/injection, schedule: Q01DX001 (ip), vehicle: carboxymethylcellulose (CMC)): 175 % of control | T/C (dose: 2400.0 mg/kg/injection, schedule: Q## X002 (ip), vehicle: carboxymethylcellulose (CMC)): 161 % of control | T/C (dose: 2400.0 mg/kg/injection, schedule: Q## X003 (ip), vehicle: carboxymethylcellulose (CMC)): 101 % of control | T/C (dose: 2400.0 mg/kg/injection, schedule: Q## X008 (ip), vehicle: carboxymethylcellulose (CMC)): 188 % of control | T/C (dose: 2400.0 mg/kg/injection, schedule: Q## X016 (ip), vehicle: carboxymethylcellulose (CMC)): 232 % of control

C=C1C(=O)O[C@@H]2/C=C(\C)CC/C=C(/C)CC[C@@H]12
T/C (dose: 50.0 mg/kg/injection, schedule: Q01DX001 (ip), vehicle: saline): 101 % of control | T/C [1]: 86 % of control | T/C [2]: 93 % of control | T/C [3]: 86 % of control

CC(=O)CCC(=O)CCC(=O)O
T/C (dose: 100.0 mg/kg/injection, schedule: Q04DX002 (ip), vehicle: saline): 92 % of control | T/C (dose: 200.0 mg/kg/injection, schedule: Q04DX002 (ip), vehicle: saline): 100 % of control | T/C (dose: 400.0 mg/kg/injection, schedule: Q04DX002 (ip), vehicle: saline): 95 % of control

c1ccc(-c2c3ccccc3c(-c3ccccc3)c3c(-c4ccccc4)c4ccccc4c(-c4ccccc4)c23)cc1
T/C [4]: 95 % of control | T/C [5]: 98 % of control | T/C [6]: 109 % of control

O=C1C(=C(C(F)(F)F)C(F)(F)F)CCc2ccccc21
T/C (dose: 50.0 mg/kg/injection, schedule: Q01DX009 (ip), vehicle: Klucel (hydroxypropylcellulose) (HPC)): 95 % of control | T/C (dose: 100.0 mg/kg/injection, schedule: Q01DX001 (ip), vehicle: Klucel (hydroxypropylcellulose) (HPC)): 91 % of control | T/C [7]: 93 % of control | T/C (dose: 200.0 mg/kg/injection, schedule: Q01DX001 (ip), vehicle: Klucel (hydroxypropylcellulose) (HPC)): 91 % of control

CC(=O)Nc1ccc(F)c(F)c1
T/C [4]: 98 % of control | T/C [5]: 113 % of control | T/C [6]: 121 % of control

CN(C)c1ccc(C=O)c(Oc2ccccc2)c1
T/C [7]: 96 % of control | T/C (dose: 100.0 mg/kg/injection, schedule: Q04DX003 (ip), vehicle: Klucel (hydroxypropylcellulose) (HPC)): 97 % of control | T/C (dose: 200.0 mg/kg/injection, schedule: Q01DX009 (ip), vehicle: Klucel (hydroxypropylcellulose) (HPC)): 110 % of control | T/C (dose: 200.0 mg/kg/injection, schedule: Q04DX003 (ip), vehicle: Klucel (hydroxypropylcellulose) (HPC)): 97 % of control | T/C (dose: 400.0 mg/kg/injection, schedule: Q01DX009 (ip), vehicle: Klucel (hydroxypropylcellulose) (HPC)): 106 % of control | T/C (dose: 400.0 mg/kg/injection, schedule: Q04DX003 (ip), vehicle: Klucel (hydroxypropylcellulose) (HPC)): 94 % of control

ClCC1CNC(c2ccccc2)O1 (centres undefined)
T/C (dose: 12.5 mg/kg/injection, schedule: Q04DX003 (ip), vehicle: saline with Tween-80): 96 % of control | T/C (dose: 25.0 mg/kg/injection, schedule: Q04DX003 (ip), vehicle: saline with Tween-80): 101 % of control | T/C (dose: 50.0 mg/kg/injection, schedule: Q04DX003 (ip), vehicle: saline with Tween-80): 98 % of control | T/C [8]: 95 % of control | T/C [9]: 93 % of control | T/C (dose: 400.0 mg/kg/injection, schedule: Q01DX001 (ip), vehicle: carboxymethylcellulose (CMC)): 101 % of control

O=C(OCCO)c1ccc(O)cc1
T/C [1]: 88 % of control | T/C [2]: 93 % of control | T/C [3]: 88 % of control

COc1ccc(/C=N/NC(=O)CNC(=O)c2ccc(Cl)c(Cl)c2)cc1
T/C (dose: 12.5 mg/kg/injection, schedule: Q01DX009 (ip), vehicle: saline with Tween-80): 104 % of control

BrCc1ccc(Br)cc1
T/C [8]: 96 % of control | T/C [9]: 91 % of control
